The values below are quoted from earlier work in patent publication US20090318556A1, “BIOMARKERS FOR DETECTING RADIATION EXPOSURE: METHODS AND USES THEREOF” (priority 2008, published 2009).

One data set deals with T1, PPARα (Mus musculus, UniProt P23204).
T1 construct: host or cells: mice (whole animal, endogenous receptor)
T1 sequence (P23204 1-468): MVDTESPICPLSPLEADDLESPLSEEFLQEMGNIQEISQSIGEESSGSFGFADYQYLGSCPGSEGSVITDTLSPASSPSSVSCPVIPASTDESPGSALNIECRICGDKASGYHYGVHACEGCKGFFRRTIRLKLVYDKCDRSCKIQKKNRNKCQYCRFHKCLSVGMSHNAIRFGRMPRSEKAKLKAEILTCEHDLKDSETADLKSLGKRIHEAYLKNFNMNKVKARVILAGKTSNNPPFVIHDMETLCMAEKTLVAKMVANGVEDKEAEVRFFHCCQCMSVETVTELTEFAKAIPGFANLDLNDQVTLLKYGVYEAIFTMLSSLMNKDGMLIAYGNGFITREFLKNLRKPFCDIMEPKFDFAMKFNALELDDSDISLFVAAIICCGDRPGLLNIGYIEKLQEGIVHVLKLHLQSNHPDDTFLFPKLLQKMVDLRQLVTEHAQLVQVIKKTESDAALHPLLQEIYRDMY
The following applies: mice.

For data set [1] the following is noted: in vivo, iv.

Turning to `CCCCCC(=O)NCC(=O)O` [N-Hexanoylglycine], the “urinary excretion reduced after activation of PPARα” value on PPARα is listed as 20 fold. Regarding `Cc1cn([C@H]2C[C@H](O)[C@@H](CO)O2)c(=O)[nH]c1=O` [[^3H]thymidine], the “radioactivity in urine relative to plasma” value in data set [1] was “approximately 100 times”.
